# Laboratory results reported in US9938301B2, “Dihydropyrimido fused ring derivative as HBV inhibitor” (QILU PHARMACEUTICAL CO., LTD., priority 2014, dated 2018).
# Read-outs that look alike come from different tables or passages of the source.
# Test system: HBV DNA in HepG2.2.15 cells
# Experiment: HBV in vitro assay quantitive qPCR test
# Format: cell-based
# Settings: Hepatitis B virus
# Experimental: • 1 Purpose of the test: • The content of HBV DNA in HepG2.2.15 cells was detected by real time quantitive qPCR test to evaluate an inhibitory action of the compound on HBV with an EC50 value of the compound as an indicator. • 2 Experimental materials: • 2.1 Cell lines: HepG2.2.15 Cells • HepG2.2.15 cell culture media (DMEM/F12, Invitrogen-11330057; 10% serum, Invitrogen-10099141; 100 units/ml Penicillin and 10 μg/ml Streptomycin, Invitrogen-15140122; 1% non-essential amino acid, Invitrogen-1140076; 2 mM L-GLUTAMINE, Invitrogen-25030081; 300 μg/ml Geneticin, Invitrogen-10131027 • 2.2 Reagents: • trypsin (Invitrogen-25300062) • DPBS (Hyclone-SH30028.01B) • DMSO (Sigma-D2650-100ML) • High-Throughput DNA Purification Kit (QIAamp 96 DNA Blood Kit, Qiagen-51162) • Quantitative Fast Start Universal Probe Reagent (FastStart Universal Probe Master, Roche-04914058001) • 2.3 Materials and Instruments: • 96-well cell culture plate (Corning-3599) • CO2 Incubator (HERA-CELL-240) • Optical Sealing Membrane (ABI-4311971) • Quantitative PCR 96-well Plate (Applied Biosystems-4306737) • Fluorescent Quantitative PCR Instrument (Applied Biosystems-7500 real time PCR system) • 3. Testing steps and Methods: • 3.1 HepG2.2.15 cells (4×10^4 cells/well) were planted into a 96-well plate, and at 37° C., 5% CO2 cultured overnight. • 3.2 On Day 2, the compounds were diluted in totally 8 concentrations with a dilution gradient of three times. The compounds at different concentrations were added into the culture wells in duplicate. The final concentration of DMSO in the culture media was 1%. 1 μM GLS4 was used as 100% inhibition control; 1% DMSO as 0% inhibition control. • 3.3 On Day 5, replacing with the fresh culture media containing the compound was performed. • 3.4 On Day 8, the culture media in the culture wells was collected, and DNA was extracted with a High-Throughput DNA Purification Kit (Qiagen-51162), See Specification of the product for specific steps. • 3.5 Preparation of PCR Reaction Mixture was shown in Table 1:
# • 3.6 To each well of a 96-well PCR plate was added 15 μl reaction mixture, and then to each well was added 10 μl sample DNA or HBV DNA standard. • 3.7 The reaction conditions of PCR were: heating at 95° C. for 10 minutes; then at 95° C. denaturing for 15 seconds, and at 60° C. extending for 1 minute, totally 40 cycles. • 3.8 Data Analysis: • 3.8.1 The inhibition percentage was calculated: % Inh.=[1−(DNA copy number in sample−DNA copy number in 1 μM GLS4)/(DNA copy number in DMSO control−DNA copy number in 1 μM GLS4)]×100. • 3.8.2 Calculating EC50: the concentration of the compound for 50% inhibition of HBV (EC50) was calculated by using GraphPad Prism Software. • 4 Testing Results • The testing results were shown in Table 3: […]
# [1] = qPCR assay, HepG2.2.15 cells, read-out: Concentration for 50% inhibition of HBV (EC50)value
# [2] = summary list of target compounds, Examples 166-220 (values of Table 3), HepG2.2.15 cells, read-out: BIOACTIVITY (inhibitory actions on HBV DNA, EC50)
# [3] = HepG2.2.15, read-out: BIOACTIVITY (inhibitory actions on HBV DNA, EC50)
# [4] = HepG2.2.15, read-out: Concentration for 50% inhibition of HBV (EC50)value
Compound,EC50 [1],EC50 [2],EC50 [3],EC50 [4]
[H]/N=C(\N)N[C@H]1CC2=C(C(=O)OC)[C@H](c3ccc(F)cc3Cl)N=C(c3nccs3)N2C1 [Example 195],1000 to 5000 nM,1000 to 5000 nM,,
COC(=O)C1=C2C[C@H](N(CC(=O)O)S(C)(=O)=O)CN2C(c2nccs2)=N[C@H]1c1ccc(F)cc1Cl [Example 186],1000 to 5000 nM,1000 to 5000 nM,,
COC(=O)C1=C2C[C@H](NS(N)(=O)=O)CN2C(c2nccs2)=N[C@H]1c1cccc(F)c1F [Example 220],< 100 nM,< 100 nM,,
COC(=O)C1=C2C[C@H](NS(C)(=O)=O)CN2C(c2nccs2)=N[C@H]1c1ccc(F)c(F)c1Cl [Example 201],< 100 nM,< 100 nM,,
COC(=O)C1=C2C[C@H](NS(=O)(=O)c3ccccn3)CN2C(c2nccs2)=N[C@H]1c1ccc(F)cc1Cl [Example 200],< 100 nM,< 100 nM,,
COC(=O)C1=C2C[C@H](NS(C)(=O)=O)CN2C(c2ncc(C)s2)=N[C@H]1c1ccc(F)cc1Cl [Example 202],100 to 500 nM,100 to 500 nM,,
COC(=O)C1=C2C[C@H](NS(C)(=O)=O)CN2C(c2nccs2)=N[C@H]1c1ccc(F)cc1C(F)(F)F [Example 203],100 to 500 nM,100 to 500 nM,,
COC(=O)C1=C2C[C@H](N(CC(F)F)S(C)(=O)=O)CN2C(c2nccs2)=N[C@H]1c1ccc(F)cc1Cl [Example 179],100 to 500 nM,100 to 500 nM,,
COC(=O)C1=C2C[C@H](NS(C)(=O)=O)CN2C(c2nccs2)=N[C@H]1c1ccc(F)cc1C [Example 180],< 100 nM,< 100 nM,,
COC(=O)C1=C2C[C@H](NS(N)(=O)=O)CN2C(c2ncc(F)cc2F)=N[C@H]1c1ccc(F)c(F)c1F [Example 219],100 to 500 nM,100 to 500 nM,,
COC(=O)C1=C2C[C@H](NS(C)(=O)=O)CN2C(c2nccs2)=N[C@H]1c1ccc(F)cn1 [Example 194],1000 to 5000 nM,1000 to 5000 nM,,
COC(=O)C1=C2C[C@@H](NS(C)(=O)=O)CN2C(c2nccs2)=N[C@@H]1c1ccc(F)cc1Cl [Example 178],100 to 500 nM,100 to 500 nM,,
COC(=O)C1=C2C[C@H](N(C)S(N)(=O)=O)CN2C(c2nccs2)=N[C@H]1c1ccc(F)cc1Cl [Example 192],< 100 nM,< 100 nM,,
COC(=O)C1=C2C[C@H](NS(=O)(=O)NC(C)C)CN2C(c2nccs2)=N[C@H]1c1cccc(F)c1Cl [Example 216],< 100 nM,< 100 nM,,
COC(=O)C1=C2C[C@H](N(O)S(C)(=O)=O)CN2C(c2nccs2)=N[C@H]1c1ccc(F)cc1Cl [Example 196],1000 to 5000 nM,1000 to 5000 nM,,
COC(=O)C1=C2C[C@H](NS(=O)(=O)N3CCC3)CN2C(c2nccs2)=N[C@H]1c1ccc(F)c(F)c1F [Example 212],100 to 500 nM,100 to 500 nM,,
COC(=O)C1=C2C[C@H](NS(=O)(=O)C(C)(C)C)CN2C(c2nccs2)=N[C@H]1c1ccc(F)cc1Cl [Example 170],< 100 nM,< 100 nM,,
COC(=O)C1=C2C[C@H](NS(=O)(=O)N(C)C)CN2C(c2nccs2)=N[C@H]1c1ccc(F)c(F)c1F [Example 207],< 100 nM,< 100 nM,,
COC(=O)C1=C2C[C@H](NS(N)(=O)=O)CN2C(c2nccs2)=N[C@H]1c1ccc(F)c(F)c1Cl [Example 198],< 100 nM,< 100 nM,,
COC(=O)C1=C2C[C@H](NS(=O)(=O)c3ccccc3F)CN2C(c2nccs2)=N[C@H]1c1ccc(F)cc1Cl [Example 204],< 100 nM,< 100 nM,,
COC(=O)C1=C2C[C@H](NS(=O)(=O)OC)CN2C(c2nccs2)=N[C@H]1c1ccc(F)cc1Cl [Example 185],< 100 nM,< 100 nM,,
COC(=O)C1=C2C[C@H](NS(=O)(=O)c3ccccc3)CN2C(c2nccs2)=N[C@H]1c1ccc(F)cc1Cl [Example 189],< 100 nM,< 100 nM,,

Compound,EC50 [1],EC50 [2],EC50 [3],EC50 [4]
COC(=O)C1=C2C[C@H](NS(C)(=O)=O)CN2C(c2nccs2)=N[C@@H]1c1ccc(F)c(F)c1F [Example 168],100 to 500 nM,100 to 500 nM,,
COC(=O)C1=C2C[C@H](NC(=O)C3CC3)CN2C(c2nccs2)=N[C@H]1c1ccc(F)cc1Cl [Example 173],< 100 nM,< 100 nM,,
COC(=O)C1=C2C[C@H](NS(N)(=O)=O)CN2C(c2nccs2)=N[C@@H]1c1ccc(F)c(F)c1Cl [Example 197],1000 to 5000 nM,1000 to 5000 nM,,
COC(=O)C1=C2C[C@H](NS(N)(=O)=O)CN2C(c2nccs2)=N[C@H]1c1cccc(F)c1Cl [Example 218],< 100 nM,< 100 nM,,
COC(=O)C1=C2C[C@H](NS(=O)(=O)NC(C)C)CN2C(c2nccs2)=N[C@H]1c1ccc(F)c(F)c1F [Example 209],< 100 nM,< 100 nM,,
CNS(=O)(=O)N[C@H]1CC2=C(C(=O)OC)[C@H](c3ccc(F)c(F)c3F)N=C(c3nccs3)N2C1 [Example 206],< 100 nM,< 100 nM,,
CCOP(=O)(N[C@H]1CC2=C(C(=O)OC)[C@H](c3ccc(F)cc3Cl)N=C(c3nccs3)N2C1)OCC [Example 174],,,100 to 500 nM,100 to 500 nM
COC(=O)C1=C2C[C@H](NS(C)(=O)=O)CN2C(c2nccs2)=N[C@H]1c1ccc(F)cc1F [Example 205],< 100 nM,< 100 nM,,
COC(=O)C1=C2C[C@H](NS(=O)(=O)CCN)CN2C(c2nccs2)=N[C@H]1c1ccc(F)cc1Cl [Example 171],< 100 nM,< 100 nM,,
COC(=O)C1=C2C[C@H](N3CCCS3(=O)=O)CN2C(c2nccs2)=N[C@H]1c1ccc(F)cc1Cl [Example 187],< 100 nM,< 100 nM,,
COC(=O)C1=C2C[C@H](NP(=O)(OC)OC)CN2C(c2nccs2)=N[C@H]1c1ccc(F)cc1Cl [Example 190],,,100 to 500 nM,100 to 500 nM
COC(=O)C1=C2C[C@H](NS(N)(=O)=O)CN2C(c2nccs2)=N[C@H]1c1ccc(F)c(F)c1F [Example 193],< 100 nM,< 100 nM,,
COC(=O)C1=C2C[C@H](N(C)S(C)(=O)=O)CN2C(c2nccs2)=N[C@H]1c1ccc(F)cc1Cl [Example 169],< 100 nM,< 100 nM,,
COC(=O)C1=C2C[C@H](N(CCO)S(C)(=O)=O)CN2C(c2nccs2)=N[C@H]1c1ccc(F)cc1Cl [Example 188],< 100 nM,< 100 nM,,
COC(=O)CS(=O)(=O)N[C@H]1CC2=C(C(=O)OC)[C@H](c3ccc(F)cc3Cl)N=C(c3nccs3)N2C1 [Example 172],< 100 nM,< 100 nM,,
CCN([C@H]1CC2=C(C(=O)OC)[C@H](c3ccc(F)cc3Cl)N=C(c3nccs3)N2C1)S(C)(=O)=O [Example 183],< 100 nM,< 100 nM,,
COC(=O)C1=C2C[C@H](NS(C)(=O)=O)CN2C(c2nccs2)=N[C@H]1c1sccc1Cl [Example 177],,,< 100 nM,< 100 nM
COC(=O)C1=C2C[C@H](NS(=O)(=O)N3CCCC3)CN2C(c2nccs2)=N[C@H]1c1ccc(F)c(F)c1F [Example 208],< 100 nM,< 100 nM,,
COC(=O)C1=C2C[C@H](NC(=O)OC(C)(C)C)CN2C(c2nccs2)=N[C@H]1c1cccc(F)c1Cl [Example 217],< 100 nM,1000 to 5000 nM,,
COC(=O)C1=C2C[C@H](NS(=O)(=O)c3cccnc3)CN2C(c2nccs2)=N[C@H]1c1ccc(F)cc1Cl [Example 199],< 100 nM,< 100 nM,,
CCCCNS(=O)(=O)N[C@H]1CC2=C(C(=O)OC)[C@H](c3ccc(F)c(F)c3F)N=C(c3nccs3)N2C1 [Example 214],< 100 nM,< 100 nM,,
CCS(=O)(=O)N[C@H]1CC2=C(C(=O)OC)[C@H](c3cccc(F)c3Cl)N=C(c3nccs3)N2C1 [Example 213],< 100 nM,< 100 nM,,
